From ChEMBL document CHEMBL1153274, “Microwave-assisted synthesis of N-substituted cyclic imides and their evaluation for anticancer and anti-inflammatory activities” (2009)

Legend:
Assay type in all cases: functional
SW-620 = test: Cytotoxicity against human SW620 cells after 48 hrs by SRB assay
Rattus norvegicus [1] = test: Antiinflammatory activity against carrageenan-induced paw edema in albino rat at 50 mg/kg, po administered 30 mins before carrageenan challenge measured after 1 to 3 hrs
SK-N-SH = test: Cytotoxicity against human SK-N-SH cells after 48 hrs by SRB assay
COLO 205 = test: Cytotoxicity against human COLO205 cells after 48 hrs by SRB assay
HEp-2 = test: Cytotoxicity against human Hep2 cells after 48 hrs by SRB assay
Rattus norvegicus [2] = test: Antiinflammatory activity against carrageenan-induced paw edema in albino rat at 25 mg/kg, po administered 30 mins before carrageenan challenge measured after 1 to 3 hrs
Rattus norvegicus [3] = test: Antiinflammatory activity against carrageenan-induced paw edema in albino rat at 100 mg/kg, po administered 30 mins before carrageenan challenge measured after 1 to 3 hrs

| SMILES | growth inhibition (GI) (SW-620) [%] | Activity (Rattus norvegicus [1]) [%] | growth inhibition (GI) (SK-N-SH) [%] | growth inhibition (GI) (COLO 205) [%] | growth inhibition (GI) (HEp-2) [%] | Activity (Rattus norvegicus [2]) [%] | Activity (Rattus norvegicus [3]) [%] |
| --- | --- | --- | --- | --- | --- | --- | --- |
| O=C1c2nccnc2C(=O)N1Cc1cccs1 | 46 | 31 | 12 | 7 | 16 |  |  |
| O=C1Cc2ccccc2CC(=O)N1Cc1ccccn1 | 37 | 32 | 0 | 0 | 11 |  |  |
| O=C1c2nccnc2C(=O)N1CCN1CCCCC1 | 9 | 16 | 10 | 2 | 12 |  |  |
| O=C1Cc2ccccc2CC(=O)N1Cc1cccnc1 | 22 | 40 | 0 | 0 | 6 | 19 | 67 |
| O=C1Cc2ccccc2CC(=O)N1CCN1CCCCC1 | 45 | 21 | 0 | 0 | 15 |  |  |
| O=C1c2nccnc2C(=O)N1Cc1ccncc1 | 36 | 32 | 0 | 1 | 11 |  |  |
| CCCCC1C(=O)N(c2ccccc2)N(c2ccccc2)C1=O [PHENYLBUTAZONE] |  | 37 |  |  |  | 17 | 63 |
| O=C1c2nc[nH]c2C(=O)N1CCN1CCCCC1 | 17 | 0 | 22 | 10 | 18 |  |  |
| O=C1c2ccncc2C(=O)N1Cc1cccs1 | 53 | 35 | 12 | 4 | 24 |  |  |
| O=C1c2ccncc2C(=O)N1Cc1ccncc1 | 20 | 33 | 9 | 12 | 12 |  |  |
| O=C1c2nc[nH]c2C(=O)N1Cc1cccs1 | 23 | 32 | 2 | 3 | 15 |  |  |
| CO[C@@]12[C@H](COC(N)=O)C3=C(C(=O)C(C)=C(N)C3=O)N1C[C@@H]1N[C@@H]12 [MITOMYCIN] | 29 |  | 85 | 41 | 60 |  |  |
| O=C1Cc2ccccc2CC(=O)N1Cc1ccco1 | 17 | 22 | 11 | 10 | 17 |  |  |
| O=C1c2ccncc2C(=O)N1CCN1CCCCC1 | 0 | 12 | 13 | 1 | 13 |  |  |
| O=C1c2nccnc2C(=O)N1Cc1ccccn1 | 33 | 29 | 11 | 6 | 16 |  |  |
| O=C1c2ccncc2C(=O)N1Cc1ccco1 | 45 | 24 | 0 | 0 | 8 |  |  |
| O=C1c2ccncc2C(=O)N1Cc1ccccn1 | 33 | 27 | 10 | 4 | 24 |  |  |
| O=C1c2nc[nH]c2C(=O)N1Cc1ccncc1 | 43 | 21 | 1 | 3 | 26 |  |  |
| O=c1[nH]cc(F)c(=O)[nH]1 [FLUOROURACIL] | 44 |  | 56 | 25 | 40 |  |  |
| O=C1c2nc[nH]c2C(=O)N1Cc1ccccn1 | 33 | 24 | 11 | 6 | 17 |  |  |
| O=C1Cc2ccccc2CC(=O)N1Cc1cccs1 | 52 | 34 | 1 | 4 | 19 |  |  |
| O=C1c2nccnc2C(=O)N1Cc1ccco1 | 12 | 0 | 15 | 7 | 11 |  |  |
